The values that follow come from the supplement of paper PMC10307832.

What all share (assay): relative viability (nuclei count vs DMSO), 5 days (fraction); higher = more cells survive
Compound in the assay “Alisertib + Trametinib”: COc1cc(Nc2ncc3c(n2)-c2ccc(Cl)cc2C(c2c(F)cccc2OC)=NC3)ccc1C(=O)O [Alisertib] + CC(=O)Nc1cccc(-n2c(=O)n(C3CC3)c(=O)c3c(Nc4ccc(I)cc4F)n(C)c(=O)c(C)c32)c1 [Trametinib] (partner 0.02 µM)
The essentials:
(§1)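 One day after seeding in 1536-well plates, lung cancer cell lines were dosed by pin tool. Dosing was either single-drug or a fixed anchor-drug dose plus five library-drug doses (not always all listed) in √10 steps. After 5 days, nuclei were stained in one fix-and-stain step and counted on 4× images, and relative viability is the nuclei count of treated wells over that of vehicle wells, given as the median of duplicate plates.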

Compound in the assay “Alisertib + Navitoclax”: COc1cc(Nc2ncc3c(n2)-c2ccc(Cl)cc2C(c2c(F)cccc2OC)=NC3)ccc1C(=O)O [Alisertib] + CC1(C)CCC(c2ccc(Cl)cc2)=C(CN2CCN(c3ccc(C(=O)NS(=O)(=O)c4ccc(N[C@H](CCN5CCOCC5)CSc5ccccc5)c(S(=O)(=O)C(F)(F)F)c4)cc3)CC2)C1 [Navitoclax] (partner 0.5 µM)
The method, boiled down: as §1

Compound in the assay “Alisertib + Phenformin”: COc1cc(Nc2ncc3c(n2)-c2ccc(Cl)cc2C(c2c(F)cccc2OC)=NC3)ccc1C(=O)O [Alisertib] + N=C(N)NC(=N)NCCc1ccccc1 [Phenformin] (partner 250 µM)
The method, boiled down: as §1

Compound in the assay “Alisertib + Pemetrexed”: COc1cc(Nc2ncc3c(n2)-c2ccc(Cl)cc2C(c2c(F)cccc2OC)=NC3)ccc1C(=O)O [Alisertib] + Nc1nc2[nH]cc(CCc3ccc(C(=O)N[C@@H](CCC(=O)O)C(=O)O)cc3)c2c(=O)[nH]1 [Pemetrexed] (partner 0.2 µM)
The essentials:
as §1

For COR-L23, the relative viability with Alisertib + Trametinib (first compound 0.005 µM) turned out to be 0.609; with Alisertib + Trametinib (first compound 0.01581 µM) it was 0.427; with Alisertib + Trametinib (first compound 0.05 µM), 0.221; in the assay with Alisertib + Trametinib (first compound 0.1581 µM), 0.133; with Alisertib + Trametinib (first compound 0.5 µM), 0.125; with Alisertib + Navitoclax (first compound 0.005 µM), 0.921. The relative viability was 0.965 with Alisertib + Navitoclax (first compound 0.01581 µM); 0.576 with Alisertib + Navitoclax (first compound 0.05 µM); 0.198 with Alisertib + Navitoclax (first compound 0.1581 µM); 0.105 in the assay with Alisertib + Navitoclax (first compound 0.5 µM); 0.351 in the assay with Alisertib + Phenformin (first compound 0.005 µM); 0.388 with Alisertib + Phenformin (first compound 0.01581 µM). Also, the relative viability with Alisertib + Phenformin (first compound 0.05 µM) turned out to be 0.243; with Alisertib + Phenformin (first compound 0.1581 µM) it was 0.137; in the assay with Alisertib + Phenformin (first compound 0.5 µM), 0.109; with Alisertib + Pemetrexed (first compound 0.005 µM), 0.197; with Alisertib + Pemetrexed (first compound 0.01581 µM), 0.196; with Alisertib + Pemetrexed (first compound 0.05 µM) it was 0.189. In addition, the relative viability turned out to be 0.179 in the assay with Alisertib + Pemetrexed (first compound 0.1581 µM) and 0.134 with Alisertib + Pemetrexed (first compound 0.5 µM).
Consider NCI-H1944, for which the relative viability with Alisertib + Trametinib (first compound 0.005 µM) worked out at 0.414; in the assay with Alisertib + Trametinib (first compound 0.01581 µM) it was 0.408; with Alisertib + Trametinib (first compound 0.05 µM), 0.272; with Alisertib + Trametinib (first compound 0.1581 µM) it was 0.251; in the assay with Alisertib + Trametinib (first compound 0.5 µM) it was 0.173; with Alisertib + Navitoclax (first compound 0.005 µM) it was 1.06. Moreover, the relative viability with Alisertib + Navitoclax (first compound 0.01581 µM) worked out at 1.01; with Alisertib + Navitoclax (first compound 0.05 µM), 0.969; with Alisertib + Navitoclax (first compound 0.1581 µM) it was 0.415; in the assay with Alisertib + Navitoclax (first compound 0.5 µM) it was 0.194; with Alisertib + Phenformin (first compound 0.005 µM) it was 0.182; with Alisertib + Phenformin (first compound 0.01581 µM), 0.206. In addition, the relative viability in the assay with Alisertib + Phenformin (first compound 0.05 µM) stood at 0.193; with Alisertib + Phenformin (first compound 0.1581 µM) it was 0.166; with Alisertib + Phenformin (first compound 0.5 µM), 0.112; with Alisertib + Pemetrexed (first compound 0.005 µM), 0.579; in the assay with Alisertib + Pemetrexed (first compound 0.01581 µM) it was 0.662; with Alisertib + Pemetrexed (first compound 0.05 µM) it was 0.564. For the same cell line, the values for the relative viability with Alisertib + Pemetrexed (first compound 0.1581 µM) and with Alisertib + Pemetrexed (first compound 0.5 µM) were 0.246 and 0.18, respectively.
Consider HCC-78, for which the relative viability with Alisertib + Trametinib (first compound 0.005 µM) worked out at 0.67; with Alisertib + Trametinib (first compound 0.01581 µM), 0.646; with Alisertib + Trametinib (first compound 0.05 µM) it was 0.263; with Alisertib + Trametinib (first compound 0.1581 µM), 0.236; with Alisertib + Trametinib (first compound 0.5 µM), 0.259; with Alisertib + Navitoclax (first compound 0.005 µM), 0.681. In addition, the relative viability in the assay with Alisertib + Navitoclax (first compound 0.01581 µM) turned out to be 0.514; with Alisertib + Navitoclax (first compound 0.05 µM), 0.176; with Alisertib + Navitoclax (first compound 0.1581 µM), 0.131; in the assay with Alisertib + Navitoclax (first compound 0.5 µM), 0.131; in the assay with Alisertib + Phenformin (first compound 0.005 µM), 0.61; in the assay with Alisertib + Phenformin (first compound 0.01581 µM), 0.541. Further, the relative viability was 0.321 in the assay with Alisertib + Phenformin (first compound 0.05 µM); 0.281 in the assay with Alisertib + Phenformin (first compound 0.1581 µM); 0.26 with Alisertib + Phenformin (first compound 0.5 µM); 0.889 with Alisertib + Pemetrexed (first compound 0.005 µM); 0.909 with Alisertib + Pemetrexed (first compound 0.01581 µM); 0.895 with Alisertib + Pemetrexed (first compound 0.05 µM). Moreover, the relative viability with Alisertib + Pemetrexed (first compound 0.1581 µM) worked out at 0.959; in the assay with Alisertib + Pemetrexed (first compound 0.5 µM), 0.926.
Consider NCI-H2405, for which the relative viability worked out at 0.614 with Alisertib + Trametinib (first compound 0.005 µM); 0.559 with Alisertib + Trametinib (first compound 0.01581 µM); 0.575 with Alisertib + Trametinib (first compound 0.05 µM); 0.418 in the assay with Alisertib + Trametinib (first compound 0.1581 µM); 0.217 with Alisertib + Trametinib (first compound 0.5 µM); 0.873 with Alisertib + Navitoclax (first compound 0.005 µM). In addition, the relative viability worked out at 0.778 with Alisertib + Navitoclax (first compound 0.01581 µM); 0.574 with Alisertib + Navitoclax (first compound 0.05 µM); 0.198 with Alisertib + Navitoclax (first compound 0.1581 µM); 0.135 with Alisertib + Navitoclax (first compound 0.5 µM); 0.366 with Alisertib + Phenformin (first compound 0.005 µM); 0.46 in the assay with Alisertib + Phenformin (first compound 0.01581 µM). Moreover, the relative viability stood at 0.371 with Alisertib + Phenformin (first compound 0.05 µM); 0.28 in the assay with Alisertib + Phenformin (first compound 0.1581 µM); 0.247 with Alisertib + Phenformin (first compound 0.5 µM); 1.01 with Alisertib + Pemetrexed (first compound 0.005 µM); 1.03 with Alisertib + Pemetrexed (first compound 0.01581 µM); 0.871 with Alisertib + Pemetrexed (first compound 0.05 µM). For the same cell line, the figures for the relative viability with Alisertib + Pemetrexed (first compound 0.1581 µM) and with Alisertib + Pemetrexed (first compound 0.5 µM) were 0.308 and 0.295, respectively.
